Assays:
NOW [1] = assay: Electroantennographic studies of CONO; set-up: species or system Amyelois transitella; conditions: lower than the positive standard
NOW [2] = assay: Field trapping screening studies of individual CONO; format: in vivo, Amyelois transitella; conditions: September 2 to Oct. 5, 2009, almond and pistachio orchards
Excerpt: FAB.x and GAVA.x blends were mixed with another component, conophthorin (CONO). CONO increased the efficacy of the blends in the FAB4 and GAVA series. This was somewhat unexpected as CONO alone is not attractive to NOW. […] Subsequent field trapping screening studies of individual CONO between September 2 and Oct. […] Virgin female NOW-baited traps at the same time indicated pressures of NOW in the orchards.

female NOW antennae = assay: Electroantennogram (EAG) bioassay, female NOW antennae; set-up: species or system Amyelois transitella; conditions: Example 1; 50 μg on disc (almond meal 3.1 mg); raw response minus NegCtrl
Description: The EAG experiments were performed by similar protocols described previously (Beck et al., 2009, supra). The antennae of sexed NOW were excised, positioned on a fork electrode using electrode gel, and connected to an IDAC-4 acquisition controller and electrophysiological amplifier using PC-based software (Syntech, Kirchzarten, Germany). The antennae were humidified with a stream of purified air bubbled through distilled water at a flow rate of 200 ml/min. The individual compounds for EAG analysis (50 μg; 10 μl of a 5 μg/μl solution in pentane) were loaded onto oven-dried 0.64 cm assay discs, allowed to air-dry for five min, inserted into 14.6 cm Pasteur pipets and the ends temporarily capped with parafilm. […] For almond meal analyses, 3.1 mg was placed in a Pasteur pipet containing very lightly packed glass wool. Negative control ([…]) discs were prepared using a similar method, but with 10 μl of pentane prior to solvent evaporation. Positive control (PosCtrl) discs were prepared using the major sex pheromone component (Z,Z)-11,13-hexadecadienal (50 μg, Suterra LLC, Bend, Oreg.). The pipets loaded with the individual compounds were attached via tubing to a stimulus controller unit (Syntech). The antennae were exposed to each compound by a two-second puff of air and the resulting response recorded. […]

C[C@@H]1CCC[C@@]2(CCCO2)O1 [CONO, 7-methyl-1,6-dioxaspiro[4.5]decane]
electroantennographic activity (NOW [1]): mildly active
attraction of NOW in field trapping (NOW [2]): did not attract any NOW

CC(=O)c1ccccc1 [acetophenone]
EAG antennal response from female NOW, normalized (female NOW antennae): 397 μV

Oc1ccccc1 [phenol]
EAG antennal response from female NOW, normalized (female NOW antennae): 78 μV
